Here are results for three compounds from paper PMC8312697, “Mechanistic Investigations Support Liver Safety of Ubrogepant” (Toxicological Sciences, 2020).

For data set [1], the system named is HepG2 cells. In words: Seahorse cellular respiration assay (OCR). Format: cell-based, human. The procedure: Identical parallel cultures were established to test for an effect on cytotoxicity via cellular ATP content. […]. Importantly, the 1-hour culture was conducted in the absence of serum (i.e., no serum protein binding) as is standard for the Seahorse Analyzer assay conditions. However, the 24-hour culture was too long for robust cell culture in the absence of serum. Serum was present up to 1 hour before the assay, when cell culture media was exchanged for the standard assay media. Three independent studies were conducted in duplicate.
To assess the potential mitochondrial liabilities of ubrogepant, cellular respiration assays using a Seahorse XFe96 Flux Analyzer were conducted by Cyprotex (Macclesfield, UK). HepG2 cells were incubated with ubrogepant at concentrations ranging from 0.1 – 125 μM for 1 or 24 hours and tested for an effect on cellular respiration as measured by the oxygen consumption rate (OCR). Three independent studies were conducted in duplicate. Importantly, the 1-hour culture was conducted in the absence of serum (i.e., no serum protein binding) as is standard for the Seahorse Analyzer assay conditions. However, the 24-hour culture was too long for robust cell culture in the absence of serum. Serum was present up to 1 hour before the assay, when cell culture media was exchanged for the standard assay media. The measured OCR was corrected for the relative amounts of viable cells that contributed to the measured OCR, removing the possible interpretation of OCR reductions as being due to cell loss.
To assess the potential mitochondrial liabilities of MK-3207, cellular respiration assays using a Seahorse XFe96 Flux Analyzer were conducted by Cyprotex (Macclesfield, UK). HepG2 cells were incubated with MK-3207 at concentrations ranging from 0.01 – 75 μM for 1 or 24 hours and tested for an effect on cellular respiration as measured by the OCR. Three independent studies were conducted in duplicate. Importantly, the 1-hour culture was conducted in the absence of serum (i.e., no serum protein binding) as is standard for the Seahorse Analyzer assay conditions. However, the 24-hour culture was too long for robust cell culture in the absence of serum. Serum was present up to 1 hour before the assay, when cell culture media was exchanged for the standard assay media. Intracellular MK-3207 concentrations were also assessed in identical duplicate HepG2 cultures. The measured OCR was corrected for the relative amounts of viable cells that contributed to the measured OCR, removing the possible interpretation of OCR reductions as being due to cell loss; the process for this was the same as that described above for ubrogepant.

Data set [2] relates to RNS/ROS production. Nature of the data set: DILIsym fit of ROS data (oxidative stress parameter). The arrangement: species or system human. The conditions noted are these: fit of 24-hour HepG2 ROS data. The text has this: Parameter values for telcagepant-mediated induction of oxidative stress were identified by simulating the experimental data in DILIsym® using a DILIsym® dosing scheme meant to represent in vitro conditions.
Parameter values for ubrogepant-mediated induction of oxidative stress were identified by simulating the experimental data in DILIsym using a DILIsym drug exposure scheme designed to represent in vitro conditions.
Parameter values for MK-3207-mediated induction of oxidative stress were identified by simulating the experimental data in DILIsym using a DILIsym drug exposure scheme meant to represent in vitro conditions. Intracellular compound concentrations were also assayed in identical cell cultures; the experimental method was the same as that described above for ubrogepant.

Data set [3] deals with Nrf2 oxidative stress and Nrf1 proteasomal stress pathways. In words: In vitro rat HEPATOPAC gene expression BA-LRA. The conditions noted are these: 50 μM. The format is cell-based.
Data set [4] in a line: Clinical study exposures. Format: in vivo, human.
The subject of data set [5] is human hepatocytes. Nature of the data set: Covalent protein binding in human hepatocytes / reactive metabolite body burden. The format is in vitro ADME. Conditions: for Projected body burden from covalent-binding studies: covalent protein binding × dose, telcagepant 560 mg, MK-3207 80 mg, ubrogepant 200 mg; for covalent protein binding: radioactivity bound in human hepatocytes. How it is done: The “body burden” is a quantitative estimate of reactive metabolite exposure that was determined for each drug based on in vitro covalent protein binding of radioactivity in human hepatocytes (in pmol equivalents/mg) multiplied by a clinically effective daily dose (in mg/day). Detailed methods used in the in vitro human hepatocyte covalent-binding experiments have been reported by [Nakayama et al. (2009)].

In data set [6] the test system is HEPATOPAC hepatocyte coculture. Nature of the data set: HEPATOPAC urea synthesis (mitochondrial function). The format is cell-based, rat. Conditions: 50 µM. How it is done: Effects of test agents on mitochondrial function were assessed from media collected in the same HEPATOPAC studies by monitoring urea synthesis rates ([Khetani et al., 2013]).
Data set [7] addresses T1, bile salt export pump (BSEP) (Homo sapiens, UniProt O95342).
T1 construct: host or cells: human hepatocytes in HEPATOPAC micropatterned co-culture
Nature of the data set: HEPATOPAC taurocholic acid transport / bile acid excretion. Format: cell-based. The source says:
The human HEPATOPAC model was also used to measure the effects of test agents on transport of taurocholic acid as an indicator of altered bile salt export pump (BSEP) function ([Li et al., 2017]). Safe dose perspective is gained from comparing in vitro concentration response results to calculated liver inlet Cmax (maximum plasma concentration).

In data set [8] the test system is rats. In words: Conventional nonclinical toxicology study, rat. Format: in vivo. The procedure: Conventional animal toxicology studies in rats and monkeys were performed by Merck & Co, Inc (West Point, Pennsylvania).
For data set [9], the system named is mouse. Nature of the data set: Conventional nonclinical toxicology study, mouse.
[10] abbreviates: HepG2, 1-hour incubation, no serum.

T1 sequence (O95342 whole entry): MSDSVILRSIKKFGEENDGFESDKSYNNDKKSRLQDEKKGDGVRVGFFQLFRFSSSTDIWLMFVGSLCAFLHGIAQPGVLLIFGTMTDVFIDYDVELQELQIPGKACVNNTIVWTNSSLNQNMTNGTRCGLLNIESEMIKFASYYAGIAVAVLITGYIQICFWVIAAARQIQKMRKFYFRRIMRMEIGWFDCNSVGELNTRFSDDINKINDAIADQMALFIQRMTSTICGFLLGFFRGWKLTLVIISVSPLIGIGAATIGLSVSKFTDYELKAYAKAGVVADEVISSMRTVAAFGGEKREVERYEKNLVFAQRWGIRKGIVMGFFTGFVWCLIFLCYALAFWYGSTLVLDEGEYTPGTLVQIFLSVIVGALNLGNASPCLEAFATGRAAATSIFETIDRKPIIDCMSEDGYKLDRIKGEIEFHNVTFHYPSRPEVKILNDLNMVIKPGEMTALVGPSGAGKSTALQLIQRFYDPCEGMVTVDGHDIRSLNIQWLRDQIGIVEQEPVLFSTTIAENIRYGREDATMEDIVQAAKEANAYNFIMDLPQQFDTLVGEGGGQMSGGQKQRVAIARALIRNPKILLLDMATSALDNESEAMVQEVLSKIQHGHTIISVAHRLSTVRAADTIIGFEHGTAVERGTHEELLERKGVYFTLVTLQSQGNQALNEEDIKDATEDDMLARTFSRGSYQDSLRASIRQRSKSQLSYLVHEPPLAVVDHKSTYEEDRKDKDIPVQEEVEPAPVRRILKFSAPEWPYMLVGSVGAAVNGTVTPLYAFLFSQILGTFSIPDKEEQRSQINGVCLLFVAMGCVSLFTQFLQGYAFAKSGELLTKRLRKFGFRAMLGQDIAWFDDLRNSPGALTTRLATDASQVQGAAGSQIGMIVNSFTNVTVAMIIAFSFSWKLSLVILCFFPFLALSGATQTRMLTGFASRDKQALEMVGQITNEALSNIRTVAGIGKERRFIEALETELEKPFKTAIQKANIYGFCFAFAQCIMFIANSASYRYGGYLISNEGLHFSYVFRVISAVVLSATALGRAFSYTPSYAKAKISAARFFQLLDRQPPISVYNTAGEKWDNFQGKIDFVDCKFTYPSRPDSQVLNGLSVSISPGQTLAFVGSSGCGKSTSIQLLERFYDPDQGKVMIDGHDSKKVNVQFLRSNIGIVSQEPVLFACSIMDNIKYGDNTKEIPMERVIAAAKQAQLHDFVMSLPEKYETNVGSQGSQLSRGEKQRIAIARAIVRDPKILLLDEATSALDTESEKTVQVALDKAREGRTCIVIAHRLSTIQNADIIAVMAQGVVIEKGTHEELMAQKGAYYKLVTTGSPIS

In the case of `O=C(N[C@@H]1CC[C@@H](c2cccc(F)c2F)CN(CC(F)(F)F)C1=O)N1CCC(n2c(=O)[nH]c3ncccc32)CC1` [Telcagepant], the “effect on oxygen consumption rate (OCR)” value is listed as “inhibit the HepG2 OCR in a dose-dependent manner” in data set [1] (setting [10]) and “A similar OCR response” in data set [1] (HepG2, 24-hour incubation). The “RNS/ROS production rate constant” value in [2] was 20,000 mL/mol/hr. Besides, the BA-LRA score in [3] is reported as more than 0.2. Further, the “clinical study exposure (mean)” value in data set [4] (Phase 3, 280 mg BID (2 h apart)) was “a Phase 3 clinical study exposures based on mean of 70 μM/h at dose of 280 mg BID (2 h apart)”. For the same compound, the Projected body burden from covalent-binding studies in [5] was 14600. The covalent protein binding in data set [5] is listed as 26 pmol equivalents/mg. Further, the “effect on urea (mitochondrial function)” value in data set [6] is on record as “No effect on urea”. For the same compound, the “effect on bile acid excretion” value in [7] (10.7× estimated unbound liver Cmax) is “No effect on bile acid excretion”. Moreover, the “Pivotal conventional nonclinical toxicology study liver findings” value in data set [8] (3M rat) was < 3× ALT/AST with no liver histopathology; in [8] (6M rat), “no liver safety signal”; in data set [9] (6M mouse) it was < 2× ALT/AST with no liver histopathology. Further, the figures for the exposure margin in data set [8] (3M rat), in [8] (6M rat) and in data set [9] (6M mouse) were 15 ×, 7 × and 14 ×, respectively.

In the case of `O=C(CN1C(=O)C2(CCCC2)NC[C@H]1c1cc(F)cc(F)c1)Nc1ccc2c(c1)C[C@@]1(C2)C(=O)Nc2ncccc21` [MK-3207], the “effect on oxygen consumption rate (OCR)” value in data set [1] (setting [10]) is given as “mildly inhibit cellular respiration”. For the same compound, in data set [1] (HepG2, 24-hour incubation), the “effect on oxygen consumption rate (OCR)” value is given as “mildly inhibit cellular respiration”. The “RNS/ROS production rate constant” value in data set [2] turned out to be 0.00022 mL/nmol/h. In data set [3], this compound showed a BA-LRA score of more than 0.2. Further, the “clinical study exposure (mean)” value in [4] (Phase 2, 900 mg daily) is given as “b Phase 2 clinical study exposures based on mean of 60 μM/h at dose of 900 mg daily; original projected daily dose was 80 mg”. Besides, in [5], the “Projected body burden from covalent-binding studies” value is given as 14 720 and the covalent protein binding stood at 184 pmol equivalents/mg. Further, the “effect on urea (mitochondrial function)” value in data set [6] was “No effect on urea”. Also, the “effect on bile acid excretion” value in [7] (4.4× estimated unbound liver Cmax (highest testable concentration, solubility)) is “no significant impact was observed on biliary excretion”. In data set [8] (6M rat), the “Pivotal conventional nonclinical toxicology study liver findings” value is on record as “no liver safety signal” and the exposure margin is reported as 25 ×. In data set [9] (6M mouse), the “Pivotal conventional nonclinical toxicology study liver findings” value was “no liver safety signal” and the exposure margin is 12 ×.

As for `C[C@@H]1[C@H](c2ccccc2)C[C@H](NC(=O)c2cnc3c(c2)C[C@@]2(C3)C(=O)Nc3ncccc32)C(=O)N1CC(F)(F)F` [Ubrogepant], in data set [1] (setting [10]), the “effect on oxygen consumption rate (OCR)” value is reported as “not after a 1-hour incubation”. In addition, the “effect on oxygen consumption rate (OCR)” value in [1] (HepG2, 24-hour incubation) was “inhibit the HepG2 OCR in a dose-dependent manner”. Also, in [2], the “RNS/ROS production rate constant” value came out at 0.00016 mL/nmol/h. Moreover, in data set [4] (Phase 3, 100 mg QD), the clinical study exposure result is “c Phase 3 clinical study exposures based on 2 μM/h at dose of 100 mg QD”. Moreover, in data set [5], the “Projected body burden from covalent-binding studies” value is listed as 4600 and the covalent protein binding is on record as 23 pmol equivalents/mg. Moreover, in data set [8] (6M rat), the “Pivotal conventional nonclinical toxicology study liver findings” value is < 2× ALT with no liver histopathology and the exposure margin is recorded as 70 ×. For the same compound, in [9] (3M mouse), the “Pivotal conventional nonclinical toxicology study liver findings” value is “no liver safety signal” and the exposure margin came out at 80 ×.
